# Patent US20250186423A1, “METHODS OF TREATING CANCER AND OTHER CONDITIONS WITH A MU OPIOID RECEPTOR ANTAGONIST” (priority 2022, published 2025)
# Tests used:
# [1] = test system: Human umbilical vein endothelial cells (HUVEC); experiment: HUVEC cell tube formation; format: cell-based; conditions: 0-1000 nM, 18 hours, absence of exogenous opioids
# Experimental: Two independent model systems were used to explore the role of MOR and endogenous opioids on angiogenesis. Human umbilical vein endothelial cells (HUVEC) in culture initiate angiogenesis through tube formation when cultured on an appropriate extracellular matrix. In a living system, the chicken egg chorioallantoic membrane assay (CAM) allows direct visualization of new blood vessel formation.
# Specifically, the HUVEC cell tube formation was assessed in the presence of various doses (0-1000 nM) of three different Mu opioid receptor antagonists (axelopran, naloxegol, and methylnaltrexone (MNTX)). For this testing, the HUVEC cells were exposed to the various MOR antagonist concentrations and incubated under the following conditions: Briefly, 50 μL of Matrigel in 96 well plates was loaded to make one layer of extracellular matrix. The plate was kept for 1 hour at 37° C. HUVEC cells were seeded on top of Matrigel (0.02×10^6 cells/well) and waited for 4 h to form tube formation. […] Once tubes formed, cells were treated with increasing amounts of the test compounds (axelopran, naloxegol, and MNTX) and incubated for 18 hours. Cells were stained with Calcein AM and images were captured. The data analysis was performed using NIH imageJ software. Tube length was measure and data was plotted using prism software.
# Zebra fish larvae = Zebra fish larvae mortality in combination therapy study; format: in vivo, zebrafish
# Experimental: The toxicity screening period covered the first 72 hours of development. The efficacy evaluation of Axelopran was made using M-001 melanoma cells and matching TILs. Two-day old zebrafish embryos were subcutaneously injected into the perivitelline space with approximately 700 M-001 cells labelled with Dil red fluorescent dye and intravenously injected with TILs with or without pembrolizumab antibody. At the same time, MOR-antagonist test doses were added to the water. Following an additional 72 hours of further development, the fish were assayed for tumor growth (size of original tumor implant) and metastasis disseminated to the distal caudal venous plexus (CVP) three days after implantation.
# For study investigating combination therapy, the Zebra fish larvae mortality was also investigated.
# [2] = test system: MDA-MB-231 tumor cell line; experiment: Breast cancer tumor progression in the CAM assay; format: in vivo, chicken
# Experimental: The chicken egg chorioallantoic membrane assay (FIG. 3B) allows for the study of tumor progression of injected tumor cells in the presence of active endogenous immune surveillance, but again in the absence of an active gut microbiome.
# Breast cancer cell tumor progression was assessed in the chicken egg, chorioallantoic membrane assay. The experimental timing is shown below in FIG. 9. Fertilized chicken eggs were incubated for 9 days. The MDA-MB-231 tumor cell line was cultivated in D-MEM medium supplemented with 10% FBS and 1% penicillin/streptomycin. On day E9, cells were detached with trypsin, washed with complete medium and suspended in graft medium. An inoculum of 1×10^6 cells was added onto the CAM of each egg (E9) and then eggs were randomized into groups. Tumor cells (breast cancer MDA-MB231 cells (10^6)) were then seeded on the upper CAM and further incubated for 3 three days. Test agents were then added to the same site at selected concentrations. Following five days of further incubation the growing tumor was excised, freed of CAM tissue, and weighed.
# For this testing, the chicken eggs were treated with: axelopran; pembrolizumab (Pembro); axelopran+pembrolizumab; bevacizumab (Beva); axelopran+bevacizumab; pembrolizumab+bevacizumab; and axelopran+pembrolizumab+bevacizumab. Axelopran was used at dose of 1.0 mg/kg; pembrolizumab was used at a dose of 2.5 mg/kg; and bevacizumab was used at a dose of 4 mg/kg. The results of this testing are shown in FIG. 10A, 10B, 11 and Table 2-2.
# [3] = test system: Mouse pancreatic tumor cells (PAN02 cells); experiment: Syngeneic mouse pancreatic cancer model; format: in vivo, mice (C57BL6)
# Experimental: Mouse pancreatic tumor cells (PAN02 cells), maintained in RPMI 1640 media supplemented with 10% FBS and 2 mmol/L L-glutamine, were amplified in vitro prior to implantation. On the day of injection, cells were harvested, counted including a trypan blue viability dye (cut-off 80%), and resuspended in PBS at the appropriate concentration. The cells (5×10^6 in 200 μL PBS) were injected subcutaneously in the right flank of Female mice (C57BL6), 5 weeks of age (18-22 gm body weight) within 30 minutes after harvesting. After 9 days of tumor growth, mice were randomized into treatment groups at 10 animals/group. Treatments included vehicle (PBS), axelopran given as 1 mg/kg, p.o. daily, mouse anti-PD-1 given as 12.5 mg/kg i.p., 3x/week and axelopran plus mouse anti-PD-1. Animals were weighed thrice weekly and tumor growth measured using callipers as described previously for the colon cancer experiments.
# M-001 melanoma cells = experiment: Melanoma tumor progression in Zebra fish larvae; format: in vivo, zebrafish; conditions: Axelopran 10000 nM, 72 hours of growth
# [4] = absence of exogenous opioids, breast cancer
compound,measurement,setting,value
"NC(=O)c1cccc(C2CC3CCC(C2)N3CCN(CC2CCCCC2)C(=O)[C@@H](O)CO)c1 (stereo partly drawn) [axelopran, 3-[(1R,3r,5S)-8-(2-{(cyclohexylmethyl)[(2S)-2,3-dihydroxypropanoyl]amino}ethyl)-8-azabicyclo[3.2.1]octan-3-yl]benzamide]",angiogenesis (HUVEC cell tube formation),[1],inhibit angiogenesis
same,Zebra fish larvae mortality,Zebra fish larvae; axelopran added with TILS and TILS plus pembrolizumab,significantly reduced this mortality
same,Zebra fish larvae mortality,"Zebra fish larvae; axelopran alone, 72-hour period after exposure at 48 hours post-fertilization",no significant mortality
same,"Breast cancer tumor progression index (tumor size × metastasis), Mean","[2]; 5 days of growth in the upper CAM, axelopran 1.0 mg/kg, pembrolizumab 2.5 mg/kg, bevacizumab 4 mg/kg",0.63 fraction of negative control
same,interaction of axelopran activity with anti-PD-1 treatment,"[2]; absence of a microbiome, breast cancer",additive
same,metastasis,[2]; [4],inhibits metastasis
same,tumor growth,[2]; [4],inhibits tumor growth
same,distribution of tumor volumes,[3]; compared to animals not treated with axelopran,lower and more uniform
same,inhibition of tumor progression,"[3]; day 23, axelopran 1 mg/kg p.o. daily, mouse anti-PD-1 12.5 mg/kg i.p. 3x/week",most prominent
same,"Melanoma tumor progression index (tumor size × metastasis), Mean",M-001 melanoma cells,2.41
